Measurements published in the NIST ThermoML archive (doi:10.1016/j.tca.2012.01.013).

Experiments:
[1] = xn = mol fraction of the nth substance listed; conditions: 101 kPa, Liquid, Vibrating tube method
[2] = refractive index (Na D-line) (dimensionless); xn = mol fraction of the nth substance listed; conditions: 101 kPa, Liquid, Standard Abbe refractometry

COC(=O)c1ccccc1C(=O)OC [dimethyl 1,2-benzenedicarboxylate] + CCC(C)O
Conditions	mass density, [1] [kg/m3]	refractive index, [2]
288.15 K, x1 = 0.1002	874.348	1.41917
288.15 K, x1 = 0.2014	929.895	1.43651
288.15 K, x1 = 0.3002	977.298	1.45122
288.15 K, x1 = 0.4001	1019.6	1.46424
288.15 K, x1 = 0.5002	1057.27	1.47591
288.15 K, x1 = 0.5991	1090.58	1.48597
288.15 K, x1 = 0.6993	1120.97	1.49516
288.15 K, x1 = 0.7996	1148.47	1.50345
288.15 K, x1 = 0.9015	1173.86	1.51115
288.15 K, x1 = 1	1196.26	1.51779
293.15 K, x1 = 0.1002	870.052	1.41698
293.15 K, x1 = 0.2014	925.438	1.43429
293.15 K, x1 = 0.3002	972.737	1.44898
293.15 K, x1 = 0.4001	1014.97	1.46209
293.15 K, x1 = 0.5002	1052.6	1.47367
293.15 K, x1 = 0.5991	1085.88	1.48373
293.15 K, x1 = 0.6993	1116.26	1.49296
293.15 K, x1 = 0.7996	1143.78	1.50126
293.15 K, x1 = 0.9015	1169.18	1.50899
293.15 K, x1 = 1	1191.59	1.51565
298.15 K, x1 = 0.1002	865.694	1.41476
298.15 K, x1 = 0.2014	920.934	1.43205
298.15 K, x1 = 0.3002	968.144	1.44672
298.15 K, x1 = 0.4001	1010.32	1.45982
298.15 K, x1 = 0.5002	1047.9	1.47143
298.15 K, x1 = 0.5991	1081.18	1.48158
298.15 K, x1 = 0.6993	1111.56	1.49076
298.15 K, x1 = 0.7996	1139.08	1.49911
298.15 K, x1 = 0.9015	1164.51	1.50685
298.15 K, x1 = 1	1186.93	1.51354
303.15 K, x1 = 0.1002	861.267	1.41252
303.15 K, x1 = 0.2014	916.383	1.42979
303.15 K, x1 = 0.3002	963.512	1.44444
303.15 K, x1 = 0.4001	1005.63	1.45755
303.15 K, x1 = 0.5002	1043.19	1.46921
303.15 K, x1 = 0.5991	1076.45	1.47934
303.15 K, x1 = 0.6993	1106.84	1.48856
303.15 K, x1 = 0.7996	1134.39	1.49692
303.15 K, x1 = 0.9015	1159.83	1.5047
303.15 K, x1 = 1	1182.28	1.51146
308.15 K, x1 = 0.1002	856.794	1.4102
308.15 K, x1 = 0.2014	911.783	1.42751
308.15 K, x1 = 0.3002	958.844	1.44214
308.15 K, x1 = 0.4001	1000.92	1.45527
308.15 K, x1 = 0.5002	1038.47	1.46689
308.15 K, x1 = 0.5991	1071.73	1.47701
308.15 K, x1 = 0.6993	1102.13	1.48633
308.15 K, x1 = 0.7996	1129.69	1.49475
308.15 K, x1 = 0.9015	1155.16	1.50256
308.15 K, x1 = 1	1177.62	1.50943
313.15 K, x1 = 0.1002	852.235	1.40779
313.15 K, x1 = 0.2014	907.129	1.42515
313.15 K, x1 = 0.3002	954.133	1.43975
313.15 K, x1 = 0.4001	996.185	1.45295
313.15 K, x1 = 0.5002	1033.72	1.46458
313.15 K, x1 = 0.5991	1066.99	1.47484
313.15 K, x1 = 0.6993	1097.4	1.48415
313.15 K, x1 = 0.7996	1124.99	1.49263
313.15 K, x1 = 0.9015	1150.49	1.50047
313.15 K, x1 = 1	1172.97	1.50736
318.15 K, x1 = 0.1002	847.597	1.40549
318.15 K, x1 = 0.2014	902.417	1.42284
318.15 K, x1 = 0.3002	949.381	1.43749
318.15 K, x1 = 0.4001	991.415	1.45068
318.15 K, x1 = 0.5002	1028.95	1.46236
318.15 K, x1 = 0.5991	1062.23	1.47262
318.15 K, x1 = 0.6993	1092.67	1.48194
318.15 K, x1 = 0.7996	1120.3	1.49047
318.15 K, x1 = 0.9015	1145.82	1.49835
318.15 K, x1 = 1	1168.32	1.50524
323.15 K, x1 = 0.1002	842.887	1.40309
323.15 K, x1 = 0.2014	897.649	1.42026
323.15 K, x1 = 0.3002	944.587	1.4351
323.15 K, x1 = 0.4001	986.618	1.4483
323.15 K, x1 = 0.5002	1024.16	1.46001
323.15 K, x1 = 0.5991	1057.47	1.47032
323.15 K, x1 = 0.6993	1087.94	1.47972
323.15 K, x1 = 0.7996	1115.59	1.48828
323.15 K, x1 = 0.9015	1141.14	1.49621
323.15 K, x1 = 1	1163.67	1.5032

COC(=O)CCCCC(=O)OC [dimethyl 1,6-hexanedioate] + CCC(C)O
Conditions	mass density, [1] [kg/m3]	refractive index, [2]
288.15 K, x1 = 0.1	851.006	1.40371
288.15 K, x1 = 0.2001	886.929	1.40787
288.15 K, x1 = 0.3	918.373	1.41161
288.15 K, x1 = 0.4	946.216	1.41507
288.15 K, x1 = 0.5003	971.377	1.41815
288.15 K, x1 = 0.6	994.171	1.42105
288.15 K, x1 = 0.6999	1014.77	1.42368
288.15 K, x1 = 0.8005	1033.71	1.42612
288.15 K, x1 = 0.8999	1050.86	1.42837
288.15 K, x1 = 1	1066.79	1.4305
293.15 K, x1 = 0.1	846.719	1.40153
293.15 K, x1 = 0.2001	882.468	1.4057
293.15 K, x1 = 0.3	913.786	1.40945
293.15 K, x1 = 0.4	941.538	1.4129
293.15 K, x1 = 0.5003	966.636	1.41602
293.15 K, x1 = 0.6	989.387	1.41891
293.15 K, x1 = 0.6999	1009.96	1.42156
293.15 K, x1 = 0.8005	1028.88	1.42403
293.15 K, x1 = 0.8999	1046.01	1.42628
293.15 K, x1 = 1	1061.93	1.42842
298.15 K, x1 = 0.1	842.377	1.39933
298.15 K, x1 = 0.2001	877.96	1.40348
298.15 K, x1 = 0.3	909.164	1.40724
298.15 K, x1 = 0.4	936.838	1.41071
298.15 K, x1 = 0.5003	961.876	1.41385
298.15 K, x1 = 0.6	984.59	1.41676
298.15 K, x1 = 0.6999	1005.13	1.41943
298.15 K, x1 = 0.8005	1024.03	1.42191
298.15 K, x1 = 0.8999	1041.15	1.4242
298.15 K, x1 = 1	1057.06	1.42636
303.15 K, x1 = 0.1	837.975	1.39709
303.15 K, x1 = 0.2001	873.411	1.40124
303.15 K, x1 = 0.3	904.511	1.405
303.15 K, x1 = 0.4	932.113	1.40851
303.15 K, x1 = 0.5003	957.1	1.41165
303.15 K, x1 = 0.6	979.781	1.4146
303.15 K, x1 = 0.6999	1000.3	1.4173
303.15 K, x1 = 0.8005	1019.19	1.41981
303.15 K, x1 = 0.8999	1036.29	1.42211
303.15 K, x1 = 1	1052.18	1.42429
308.15 K, x1 = 0.1	833.506	1.39479
308.15 K, x1 = 0.2001	868.81	1.39899
308.15 K, x1 = 0.3	899.82	1.40278
308.15 K, x1 = 0.4	927.355	1.4063
308.15 K, x1 = 0.5003	952.301	1.40948
308.15 K, x1 = 0.6	974.955	1.41244
308.15 K, x1 = 0.6999	995.457	1.41515
308.15 K, x1 = 0.8005	1014.33	1.4177
308.15 K, x1 = 0.8999	1031.43	1.42004
308.15 K, x1 = 1	1047.31	1.42222
313.15 K, x1 = 0.1	828.965	1.39245
313.15 K, x1 = 0.2001	864.16	1.39669
313.15 K, x1 = 0.3	895.087	1.40049
313.15 K, x1 = 0.4	922.569	1.40404
313.15 K, x1 = 0.5003	947.474	1.40726
313.15 K, x1 = 0.6	970.109	1.41026
313.15 K, x1 = 0.6999	990.598	1.41301
313.15 K, x1 = 0.8005	1009.47	1.41557
313.15 K, x1 = 0.8999	1026.55	1.41795
313.15 K, x1 = 1	1042.43	1.42017
318.15 K, x1 = 0.1	824.35	1.39013
318.15 K, x1 = 0.2001	859.451	1.39438
318.15 K, x1 = 0.3	890.312	1.39825
318.15 K, x1 = 0.4	917.75	1.4018
318.15 K, x1 = 0.5003	942.626	1.40503
318.15 K, x1 = 0.6	965.245	1.40808
318.15 K, x1 = 0.6999	985.726	1.41088
318.15 K, x1 = 0.8005	1004.59	1.41348
318.15 K, x1 = 0.8999	1021.67	1.41588
318.15 K, x1 = 1	1037.54	1.41819
323.15 K, x1 = 0.1	819.659	1.38776
323.15 K, x1 = 0.2001	854.686	1.39207
323.15 K, x1 = 0.3	885.493	1.39597
323.15 K, x1 = 0.4	912.894	1.39955
323.15 K, x1 = 0.5003	937.752	1.40283
323.15 K, x1 = 0.6	960.363	1.40592
323.15 K, x1 = 0.6999	980.838	1.40875
323.15 K, x1 = 0.8005	999.701	1.41138
323.15 K, x1 = 0.8999	1016.78	1.41382
323.15 K, x1 = 1	1032.64	1.41614
